We go through ten compounds from patent US20220282217A1, “COMPOSITIONS AND METHODS FOR PREPARING T CELL COMPOSITIONS AND USES THEREOF” (priority 2019, published 2022).

One may read the IC50 as the concentration at which inhibition is half-maximal.

Where a SMILES comes first, the peptide text is derived from it.

The target in the first assay is HLA-A02.01 (Homo sapiens, UniProt P04439, D140Y/D185E/D98H/E176V/E277Q/G131W/G231S/I119V/I121R/I166T/I218V/L300P/L318F/N151K/N90K/P208A/P217A/Q86G/Q94H/R138H/R169H/T345S). Nature of the assay: Class I MHC peptide binding affinity (displacement of radiolabeled reference peptide). The following applies: Observed Affinity (IC50; (nM)), allele A02.01. As to the method:
In brief, MHCI complexes were prepared and bound to radiolabeled reference peptides. Peptides were incubated at varying concentrations with these complexes for 2 days, and the amount of remaining radiolabeled peptide bound to […] was measured using size exclusion gel-filtration.
In the case of `CC[C@H](C)[C@H](NC(=O)[C@H](CCC(N)=O)NC(=O)[C@@H](N)[C@@H](C)O)C(=O)N[C@@H](CO)C(=O)N[C@@H](CO)C(=O)N[C@@H](C)C(=O)N[C@H](C(=O)N[C@@H](CCC(=O)O)C(=O)N[C@@H](Cc1ccc(O)cc1)C(=O)N[C@@H](CC(C)C)C(=O)O)[C@@H](C)O` (H-TQISSATEYL-OH; N-terminus and C-terminus assumed), the half-maximal inhibitory concentration (IC50) turned out to be 2640 nM.
The same measure, in the same setting: the value for `CC[C@H](C)[C@H](NC(=O)[C@@H](NC(=O)[C@@H](NC(=O)[C@@H](N)Cc1ccc(O)cc1)[C@@H](C)CC)[C@@H](C)CC)C(=O)N[C@@H](CCC(=O)O)C(=O)N[C@@H](Cc1ccccc1)C(=O)N[C@@H](CCSC)C(=O)N[C@H](C(=O)N[C@@H](Cc1ccc(O)cc1)C(=O)NCC(=O)O)[C@@H](C)O` (H-YIIIEFMTYG-OH; N-terminus and C-terminus assumed) was 186 nM.

The assay is the same for the next values; noted with them: allele A02.01; read-out: Observed Affinity (IC50; (nM)).
In the case of `CC(C)C[C@H](NC(=O)[C@@H](N)CC(C)C)C(=O)NCC(=O)N[C@@H](CCCNC(=N)N)C(=O)N[C@@H](CC(N)=O)C(=O)N[C@@H](CO)C(=O)N[C@@H](Cc1ccccc1)C(=O)N[C@@H](CCC(=O)O)C(=O)N[C@H](C(=O)N[C@@H](CS)C(=O)O)C(C)C` (H-LLGRNSFEVC-OH; N-terminus and C-terminus assumed), the IC50 is 2080 nM.
On the same count and under the same terms, to `CC(C)C[C@H](NC(=O)[C@H](CC(C)C)NC(=O)[C@H](CC(=O)O)NC(=O)[C@H](CO)NC(=O)[C@H](CC(C)C)NC(=O)[C@@H]1CCCN1C(=O)[C@@H](NC(=O)[C@@H](NC(=O)[C@@H](N)CC(N)=O)C(C)C)C(C)C)C(=O)O` (H-NVVPLSDLL-OH; N-terminus and C-terminus assumed) belongs 916 nM; to `CC(C)C[C@H](NC(=O)[C@H](CC(C)C)NC(=O)[C@H](CC(=O)O)NC(=O)[C@H](CS)NC(=O)[C@H](CC(C)C)NC(=O)[C@@H]1CCCN1C(=O)[C@@H](NC(=O)[C@@H](NC(=O)[C@@H](N)CC(N)=O)C(C)C)C(C)C)C(=O)O` (H-NVVPLCDLL-OH; N-terminus and C-terminus assumed), 3030 nM.
Still for that read-out and setting: the value for `CC[C@H](C)[C@H](NC(=O)[C@@H]1CCCN1C(=O)[C@H](CCCNC(=N)N)NC(=O)[C@H](CCC(N)=O)NC(=O)[C@H](CC(N)=O)NC(=O)[C@H](CCSC)NC(=O)CN)C(=O)N[C@@H](CC(C)C)C(=O)N[C@H](C(=O)O)[C@@H](C)O` (H-GMNQRPILT-OH; N-terminus and C-terminus assumed) was 3030 nM; that for `CSCC[C@H](NC(=O)[C@H](CCCNC(=N)N)NC(=O)[C@H](CCCNC(=N)N)NC(=O)[C@H](Cc1ccc(O)cc1)NC(=O)[C@H](CC(=O)O)NC(=O)[C@H](Cc1c[nH]c2ccccc12)NC(=O)[C@H](CO)NC(=O)[C@H](CO)NC(=O)[C@H](CC(C)C)NC(=O)[C@@H](N)Cc1ccccc1)C(=O)O` (H-FLSSWDYRRM-OH; N-terminus and C-terminus assumed) was 324 nM.
Same read-out and setting: the value for `CC[C@H](C)[C@H](N)C(=O)N[C@@H](CC(C)C)C(=O)N[C@H](C(=O)N[C@@H](CCCNC(=N)N)C(=O)N[C@@H](CCCCN)C(=O)N[C@@H](C)C(=O)N[C@@H](CCSC)C(=O)N[C@H](C(=O)N[C@H](C(=O)O)C(C)C)[C@@H](C)O)[C@@H](C)CC` (H-ILIRKAMTV-OH; N-terminus and C-terminus assumed) was 19.5 nM.
On to `CC[C@H](C)[C@H](NC(=O)[C@H](CO)NC(=O)[C@H](CC(C)C)NC(=O)CN)C(=O)N[C@@H](CO)C(=O)N[C@@H](CS)C(=O)N[C@H](C(=O)N[C@H](C(=O)N[C@@H](CC(C)C)C(=O)O)[C@@H](C)O)[C@@H](C)O` (H-GLSISCTTL-OH; N-terminus and C-terminus assumed), for which the IC50 was 114 nM.
Consider `CC(C)C[C@H](NC(=O)[C@H](CS)NC(=O)[C@H](Cc1c[nH]c2ccccc12)NC(=O)[C@H](CC(C)C)NC(=O)[C@H](CO)NC(=O)[C@H](CO)NC(=O)[C@H](CCCNC(=N)N)NC(=O)[C@H](CCC(N)=O)NC(=O)[C@H](CC(C)C)NC(=O)[C@@H](N)[C@@H](C)O)C(=O)O` (H-TLQRSSLWCL-OH; N-terminus and C-terminus assumed), for which the 50% inhibitory concentration (IC50) was 118 nM.
